Assay results: ChEMBL document CHEMBL1201862, “PubChem BioAssay data set” (2004)
Several values for one entry are separate records, joined by “and”; a condition that tells them apart may be missing. Equal entries are not always repeated.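 Method: 48-hour compound exposure of cells in 96-well plates, five concentrations, linear interpolation of endpoints. The concentration for 50% growth inhibition is given as GI50.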 Activity calls are given as the source filed them. Cut-off read from the data, not from the text of the source: active = GI50 up to about 1.1 µM and inactive = higher.

Tests used:
Assay in all cases: NCI anticancer screen, dose series, 48 h
[1] = test system: 786-0
[2] = test system: A498
[3] = test system: A549
[4] = test system: ACHN
[5] = test system: BT-549
[6] = test system: CAKI-1
[7] = test system: DU-145
[8] = test system: EKVX
[9] = test system: HCC 2998
[10] = test system: HCT-116
[11] = test system: HCT-15
[12] = test system: HL-60
[13] = test system: HT-29
[14] = test system: Hs-578T
[15] = test system: K562
[16] = test system: KM12
[17] = test system: LOX IMVI
[18] = test system: MCF7
[19] = test system: MDA-MB-435
[20] = test system: MDA-N
[21] = test system: Malme-3M
[22] = test system: NCI-H23
[23] = test system: NCI-H522
[24] = test system: NCI/ADR-RES
[25] = test system: OVCAR-3
[26] = test system: OVCAR-4
[27] = test system: OVCAR-5
[28] = test system: PC-3
[29] = test system: RXF 393
[30] = test system: SF-295
[31] = test system: SK-MEL-5
[32] = test system: SN12C
[33] = test system: SNB-19
[34] = test system: SW-620
[35] = test system: U-251
[36] = test system: UACC-257
[37] = test system: UACC-62
[38] = test system: UO-31
[39] = test system: CCRF-CEM
[40] = test system: IGROV-1
[41] = test system: M14
[42] = test system: OVCAR-8
[43] = test system: SF-268
[44] = test system: SF-539
[45] = test system: SK-MEL-28
[46] = test system: SK-OV-3
[47] = test system: T47D
[48] = test system: TK-10
[49] = test system: COLO 205
[50] = test system: HOP-62
[51] = test system: HOP-92
[52] = test system: MDA-MB-231
[53] = test system: NCI-H226
[54] = test system: NCI-H460
[55] = test system: SK-MEL-2
[56] = test system: SNB-75
[57] = test system: SR
[58] = test system: MOLT-4
[59] = test system: RPMI-8226

Measured: GI50

COc1ccc(-c2c(C(C)=O)c(-c3ccccc3)n(C3OC(COC(C)=O)C(OC(C)=O)C(OC(C)=O)C3OC(C)=O)c(=S)c2C#N)cc1O (stereo not given)
inactive: [1] 36.5 µM and 36.9 µM | [2] > 100 µM | [3] 68.5 µM and 44.9 µM | [4] 40.8 µM and 32.9 µM | [5] 33.7 µM | [6] 62.8 µM and 49.7 µM | [7] 37.8 µM and 26.9 µM | [8] 25.9 µM and 34.6 µM | [9] 24.1 µM and 18.2 µM | [10] 21.8 µM and 36.2 µM | [12] 7.1 µM | [13] 36.9 µM | [14] 47.6 µM and 70.5 µM | [15] 47.9 µM and 49.4 µM | [16] 33.7 µM and 19.1 µM | [17] 34.6 µM and 23.2 µM | [18] 28.6 µM and 36.1 µM | [19] 39.1 µM and 32 µM | [20] 27.5 µM and 33.5 µM | [21] 18.5 µM and 16.4 µM | [22] 35.4 µM and 26 µM | [23] 17.6 µM and 10.1 µM | [24] 38.3 µM | [25] 29.4 µM and 16.8 µM | [26] 31.8 µM and 24.7 µM | [27] > 100 µM and 66.7 µM | [28] 26.4 µM and 41.4 µM | [29] 40.6 µM and 42.1 µM | [30] 64.4 µM and 36.4 µM | [31] 33.4 µM and 30.1 µM | [32] > 100 µM and 52.1 µM | [33] 71.4 µM | [34] 93.8 µM and 91.6 µM | [35] 91.8 µM and 69.5 µM | [36] 55.8 µM and 34.9 µM | [37] 38.7 µM and 19.9 µM | [38] 56.9 µM and 36.4 µM
42.3 µM and 28 µM: [11]

C=CCN1C(=O)/C(=C/c2ccc(Cl)cc2)N=C1SC1OC(COC(C)=O)C(OC(C)=O)C(OC(C)=O)C1OC(C)=O (stereo not given)
inactive: [1] 3.5 µM | [3] 14.4 µM | [5] 31.3 µM and 15.7 µM | [6] 10.9 µM and 9.93 µM | [39] 37.2 µM | [7] 24 µM and 14.6 µM | [8] 24.3 µM and 33.4 µM | [10] 5.02 µM | [13] 35.6 µM | [14] 2.54 µM | [40] 22.4 µM and 33 µM | [16] 30.2 µM and 22.8 µM | [17] 22.9 µM and 29.9 µM | [41] 28.1 µM | [18] 12.7 µM and 7.41 µM | [19] 14 µM and 13.8 µM | [20] 25.8 µM | [22] 20 µM and 25.1 µM | [23] 2.98 µM and 3.81 µM | [25] 11.6 µM and 18.5 µM | [42] 15.7 µM and 8.43 µM | [43] 1.64 µM | [44] 33 µM and 25.3 µM | [45] 39.4 µM and 56.9 µM | [31] 26.6 µM and 15.8 µM | [46] > 39.8 µM and 27.1 µM | [32] 16.5 µM | [33] 15.8 µM | [47] 8.51 µM | [48] 46.2 µM and > 42.6 µM | [36] 18.9 µM and 12.2 µM

CCO/C=N\c1c(C#N)c(-c2ccc(Cl)cc2)cn1-c1ccc(C)cc1
inactive: [1] > 100 µM | [2] > 100 µM | [3] > 100 µM | [4] > 100 µM | [5] > 100 µM | [6] > 100 µM | [39] > 100 µM | [49] > 100 µM | [7] > 100 µM | [8] > 100 µM | [9] > 100 µM | [10] > 100 µM | [12] > 100 µM | [50] > 100 µM | [51] > 100 µM | [13] > 100 µM | [14] 95.9 µM | [40] > 100 µM | [15] > 100 µM | [17] > 100 µM | [41] > 100 µM | [18] > 100 µM | [52] > 100 µM | [19] > 100 µM | [20] > 100 µM | [21] > 100 µM | [53] > 100 µM | [22] > 100 µM | [54] > 100 µM | [23] > 100 µM | [24] > 100 µM | [25] > 100 µM | [26] > 100 µM | [27] > 100 µM | [42] > 100 µM | [28] > 100 µM | [29] > 100 µM | [43] > 100 µM | [30] > 100 µM | [44] > 100 µM | [45] > 100 µM | [55] > 100 µM | [31] > 100 µM | [46] > 100 µM | [32] > 100 µM | [33] > 100 µM | [56] > 100 µM | [34] > 100 µM | [48] > 100 µM | [35] > 100 µM | [36] > 100 µM | [37] > 100 µM | [38] > 100 µM
> 100 µM: [11]
active: [57] 0.0272 µM

Cn1c(N=P(c2ccccc2)(c2ccccc2)c2ccccc2)c([N+](=O)[O-])c(=O)n(C)c1=O
51.9 µM: [11]
inactive: [1] 39 µM | [2] 59.7 µM | [3] 40.6 µM | [4] 55.7 µM | [5] 38.5 µM | [6] > 100 µM | [39] 20.2 µM | [49] 44.5 µM | [8] 56.2 µM | [9] 71.8 µM | [10] 36.6 µM | [50] 48 µM | [51] > 100 µM | [13] 44.5 µM | [14] 25.2 µM | [40] 48 µM | [15] 16.2 µM | [16] 25.6 µM | [17] 35.9 µM | [41] 31.6 µM | [18] 42.3 µM | [52] 32.2 µM | [19] 35.2 µM | [20] 34.1 µM | [58] 21.2 µM | [21] > 100 µM | [53] > 100 µM | [22] 99.1 µM | [54] 43.4 µM | [23] 41.9 µM | [24] 89.9 µM | [25] 30.5 µM | [26] 41.1 µM | [27] > 100 µM | [28] 24.7 µM | [59] 34 µM | [29] > 100 µM | [43] 78.7 µM | [30] 53 µM | [44] > 100 µM | [55] 17.4 µM | [31] 47.4 µM | [46] > 100 µM | [32] 56.2 µM | [33] > 100 µM | [56] 25.5 µM | [34] 41.4 µM | [47] 33.7 µM | [48] 67.9 µM | [35] 66.2 µM | [36] 73.1 µM | [37] 59.2 µM | [38] 71 µM
active: [42] 0.991 µM

Nc1ccn(C2OC(COP(=O)(O)O)C(O)C2O)c(=O)n1 (stereo not given)
inactive: [1] 5.31 µM | [2] 26.8 µM | [4] 1.21 µM | [5] > 100 µM | [6] 14.4 µM | [49] > 55.3 µM | [7] 1.19 µM | [8] > 100 µM | [9] > 100 µM | [10] 1.8 µM | [51] 17.8 µM | [13] 11.4 µM | [40] 40.7 µM | [15] 24 µM | [16] > 100 µM | [17] 3.08 µM | [18] 1.31 µM | [52] > 100 µM | [19] 14.5 µM | [20] 37.8 µM | [53] 3.18 µM | [22] 8.83 µM | [23] 20.2 µM | [24] 6.38 µM | [25] > 100 µM | [26] > 100 µM | [27] > 100 µM | [42] 2.47 µM | [28] > 100 µM | [59] > 100 µM | [29] 11.1 µM | [43] 10.9 µM | [30] 33 µM | [44] 8.05 µM | [55] > 100 µM | [31] 16.6 µM | [46] 42.1 µM | [32] 7.89 µM | [33] 23.8 µM | [56] 28.8 µM | [57] 3.39 µM | [34] > 56.9 µM | [47] 42 µM | [48] > 100 µM | [35] 14.3 µM | [36] > 63.4 µM | [37] 10.9 µM | [38] 6.98 µM
active: [3] 0.422 µM | [39] < 0.01 µM | [12] 0.205 µM | [50] 0.951 µM | [41] 0.982 µM | [58] 0.0497 µM | [54] 0.32 µM
45.5 µM: [11]
